Laboratory results published in PMC10987858 (Heliyon, 2024).

biological target: Bovine Serum Albumin (BSA) (Bos taurus, UniProt P02769); assay: tryptophan fluorescence quenching titration; assay type: binding; conditions: 298 K; phosphate buffer, pH not given; 10 μM BSA stock; double-log
Sequence (P02769 25-607): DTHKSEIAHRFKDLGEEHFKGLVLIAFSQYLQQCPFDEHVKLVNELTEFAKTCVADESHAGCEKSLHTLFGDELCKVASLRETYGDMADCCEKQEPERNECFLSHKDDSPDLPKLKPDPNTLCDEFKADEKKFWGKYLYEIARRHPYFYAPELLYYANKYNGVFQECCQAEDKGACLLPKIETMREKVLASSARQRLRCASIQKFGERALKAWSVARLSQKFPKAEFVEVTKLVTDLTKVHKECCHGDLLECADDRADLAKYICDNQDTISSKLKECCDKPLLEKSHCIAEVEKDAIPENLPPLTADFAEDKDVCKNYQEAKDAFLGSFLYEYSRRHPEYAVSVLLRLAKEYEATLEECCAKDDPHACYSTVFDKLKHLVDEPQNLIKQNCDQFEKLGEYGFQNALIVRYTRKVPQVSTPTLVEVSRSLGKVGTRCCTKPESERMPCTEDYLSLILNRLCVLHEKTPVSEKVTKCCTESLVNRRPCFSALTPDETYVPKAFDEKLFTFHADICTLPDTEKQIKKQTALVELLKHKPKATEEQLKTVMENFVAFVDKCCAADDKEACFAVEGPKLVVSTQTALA

Row | Kb | SMILES
1 | 2.47e+06 M⁻¹ | CC=NNC(=O)Cc1ccccc1 [EPAH, N′-ethylidene-2-phenylacetohydrazide]
2 | 44500 M⁻¹ | O=C(Cc1ccccc1)NN=Cc1ccco1 [FMPAH, N’-(furan-2-ylmethylene)-2-phenylacetohydrazide]
3 | 1.75e+08 M⁻¹ | O=C(Cc1ccccc1)N/N=C/C=C/c1ccccc1 [PPAH, 2-Phenyl-N'-(3-phenylallylidene)acetohydrazide]
4 | 683000 M⁻¹ | O=C(Cc1ccccc1)NN=Cc1ccccc1O [HBPAH, N'-(2-hydroxybenzylidene)-2-phenylacetohydrazide]
